Consider two compounds from patent publication US6730666B1, “Pharmaceutical compositions comprising porphyrins and some novel porphyrin derivatives” (Yeda Research and Development Co. Ltd., priority 1998, dated 2004).

“Also recorded” adds a separate entry of the source. Where two headings read alike, the source gives them in different places.

In test [1] the test system is Lewis lung carcinoma (LLC) lung metastasis. The test is described as follows: Lewis lung carcinoma lung metastasis model. It is filed as in vivo, C57 black mice. Details: Inhibitory activity in vivo, LLC tumor model (as % of total inhibition): reference not given here. The conditions noted are these: for Inhibitory activity in vivo, LLC tumor model (as % of total inhibition): 25 μg/gram, LLC murine tumor model, lung metastasis. The procedure: (§1) (vii) Lewis lung carcinoma tumor assay. Murine Lewis lung carcinoma (LLC) D122 cells (1×10^6 cells/[…] PBS) were injected into the foot pads of 10-week old C57 black mice (O'Reilly et al, 1994). Twenty five μg/g of body mass of porphyrin or corrole compound dissolved in PBS were injected IP twice a week to the treated group, and tumor size was measured periodically in order to follow primary tumor formation. In order to evaluate inhibition of lung metastasis by porphyrin or corrole compound, the primary tumors were allowed to develop over a period of six weeks to a volume of approximately 8 mm^3; after which the tumors were removed and metastases were allowed to develop for four weeks. During this time the treated group received 25 μg/g of body mass of porphyrin or corrole compound IP twice a week. Subsequently the mice were sacrificed, dissected and the lungs removed and photographed. The extent of lung metastasis was measured by weighing the lungs.
After establishing the capacity of P1 to inhibit primary tumor growth, the capacity of P1 to inhibit lung metastasis formation was measured as described in Methods, section (vi). Mice were injected with LLC cells (200,000 cells per mouse) into the foot pad and primary tumors were allowed to develop over a period of 3 to 4 weeks to a volume of approximately 8 mm^3. Subsequently, primary tumors were removed through amputation and lung metasases were allowed to develop for four weeks before the mice were sacrificed. The extent of lung metastasis at this point was examined by gross morphological examination and by determining the gain in lung weight. […] In order to quantitate the results from these experiments, the lungs from all mice were weighed and evaluated for the extent of metastatic growth.

For test [2], the target named is T1, FGFR-1 (Mus musculus, UniProt P16092). The test can be described thus: Binding of 125I-bFGF to CHO cells expressing FGFR-1.
Description: First we utilized a cell-free system, measuring the binding of radiolabeled bFGF to a dimeric soluble FGFR-1 fused to alkaline phosphatase. The soluble FRAP was immobilized using an anti-alkaline phosphatase antibody prebound to agarose-protein A beads (see Methods, section (iii)). As a: second experimental model, we used CHO cells deficient in heparan sulfate and genetically engineered to express FGFR-1 (Methods, section (iv)).
Test [3] concerns the target T1, FGFR-1. The test can be described thus: Covalent cross-linking of 125I-bFGF to CHO cells transfected with FGFR-1. It is filed as binding. Also on record: expressed in transfected cells; host or cells: CHO cells deficient in heparan sulfate. The note with it: FIG. 2. On the procedure: Binding of ^125I-bFGF to confluent monolayers of PGFR-1 expressing CHO cells or ^125I-FGF9 to FGFR-3 expressing CHO cells, was performed as described in Methods, section (iv), in the presence or absence of P1 (Inhibitor). After 90 min, disuccinylimidyl suberate [DSS]
(iv) Binding of ^125I-bFGF and ^125I-FGF9 to cells. Confluent cultures of CHO cells expressing FGFR-1(Yayon et al, 1991) or FGFR-3 (Hecht et al, 1995) in 24-well plates (Falcon) were precooled and washed twice with cold DMEM supplemented with 20 mM Hepes (pH 7.5) and 0.1% bovine serum albumin (DMEM/BSA). They were then incubated for 1.5 h at 4° C. with ^125I-bFGF (2 ng/ml) and increasing concentrations of porphyrin/corrole compound. The binding medium was discarded and the cells were washed once with ice-cold DMEM/BSA and twice with cold PBS (pH 7.5) containing 1.6M NaCl. […] Non-specific binding was determined in the presence of a 100-fold excess of unlabeled bFGF.
In order to unequivocally determine the specificity of the binding inhibition, chemical cross-linking of ^125I-bFGF and ^125I-FGF9 to CHO cells transfected with FGFR-1 and FGFR-3, respectively, was carried out as described in Methods, section (iv), in the absence or presence of increasing concentrations of P1.

Test [4] deals with EGF tyrosine kinase receptor (Homo sapiens, UniProt P00533). The test is described as follows: Binding of EGF to its high affinity tyrosine kinase receptor.
Test [5] has as its system FGFR-3 expressing CHO cells. The test is described as follows: FGF-9 induced mitogenic activity (DNA synthesis) of FGFR-3 expressing CHO cells. It is filed as cell-based. The note with it: FIG. 13. The procedure:
CHO cells genetically engineered to express FGFR-3 were grown in the presence of increasing concentrations of porphyrins P1 and P16 in order to determine the ability of the porphyrins to inhibit FGF-9 induced DNA synthesis.
CHO cells genetically engineered to express FGFR-3 were used in order to determine the ability of the porphyrins P1 and P16 to inhibit biological activity of FGFR3 as measured by the level of DNA synthesis induced by FGF-9.

Test [6] deals with Lewis lung carcinoma (LLC) D122 cells. The test is described as follows: Lewis lung carcinoma primary tumor growth (foot pad). The conditions noted are these: 25 μg/g of body mass IP twice a week. It is filed as in vivo, C57 black mice. On the procedure: as §1
Inhibition of primary tumor growth was tested using the well-established LLC murine tumor growth and metastasis model (Methods, section (vii)). LLC D122 cells (200,000 cells per mouse) were injected into the foot pads of 10-week old C57 black mice. […] The inhibition of the foot pad primary carcinoma tumor growth was statistically established and reproducible in five experiments.

A further test concerns the target T2, soluble FGFR-1 (FRAP) (Mus musculus, UniProt P16092).
T2 sequence (P16092 22-376 limits assumed): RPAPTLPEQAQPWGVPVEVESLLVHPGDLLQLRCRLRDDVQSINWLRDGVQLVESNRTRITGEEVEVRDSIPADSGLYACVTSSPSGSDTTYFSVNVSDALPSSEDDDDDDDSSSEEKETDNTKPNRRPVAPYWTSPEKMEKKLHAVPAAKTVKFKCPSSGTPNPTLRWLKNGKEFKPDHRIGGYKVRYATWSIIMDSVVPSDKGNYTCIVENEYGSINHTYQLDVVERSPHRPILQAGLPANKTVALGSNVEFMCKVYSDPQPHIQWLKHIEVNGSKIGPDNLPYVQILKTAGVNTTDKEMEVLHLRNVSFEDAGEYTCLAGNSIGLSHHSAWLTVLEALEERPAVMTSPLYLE
The test is described as follows: Binding of 125I-bFGF to immobilized soluble FGFR-1 (FRAP), cell-free.

In test [7] the target is T3, flt-1 VEGF receptor AP fusion protein (Homo sapiens, UniProt P17948).
T3 construct: soluble VEGF receptor flt-1-AP fusion protein; made in house
The test can be described thus: Binding of soluble VEGF receptor flt-1-AP fusion protein to immobilized VEGF. The conditions noted are these: FIG. 10B; read-out: IC50, inhibition of flt-1-AP binding to immobilized VEGF. The text has this:
ix) Binding of soluble VEGF receptor alkaline phosphatase fusion protein to immobilized VEGF. The flt-1 VEGF receptor was expressed as a fusion protein with AP as previously described (Roeckl et al, 1998) and tested for its binding capacity to immobilized VEGF as described in method (ii) above for the FGF receptor.

T1 sequence (P16092 22-822): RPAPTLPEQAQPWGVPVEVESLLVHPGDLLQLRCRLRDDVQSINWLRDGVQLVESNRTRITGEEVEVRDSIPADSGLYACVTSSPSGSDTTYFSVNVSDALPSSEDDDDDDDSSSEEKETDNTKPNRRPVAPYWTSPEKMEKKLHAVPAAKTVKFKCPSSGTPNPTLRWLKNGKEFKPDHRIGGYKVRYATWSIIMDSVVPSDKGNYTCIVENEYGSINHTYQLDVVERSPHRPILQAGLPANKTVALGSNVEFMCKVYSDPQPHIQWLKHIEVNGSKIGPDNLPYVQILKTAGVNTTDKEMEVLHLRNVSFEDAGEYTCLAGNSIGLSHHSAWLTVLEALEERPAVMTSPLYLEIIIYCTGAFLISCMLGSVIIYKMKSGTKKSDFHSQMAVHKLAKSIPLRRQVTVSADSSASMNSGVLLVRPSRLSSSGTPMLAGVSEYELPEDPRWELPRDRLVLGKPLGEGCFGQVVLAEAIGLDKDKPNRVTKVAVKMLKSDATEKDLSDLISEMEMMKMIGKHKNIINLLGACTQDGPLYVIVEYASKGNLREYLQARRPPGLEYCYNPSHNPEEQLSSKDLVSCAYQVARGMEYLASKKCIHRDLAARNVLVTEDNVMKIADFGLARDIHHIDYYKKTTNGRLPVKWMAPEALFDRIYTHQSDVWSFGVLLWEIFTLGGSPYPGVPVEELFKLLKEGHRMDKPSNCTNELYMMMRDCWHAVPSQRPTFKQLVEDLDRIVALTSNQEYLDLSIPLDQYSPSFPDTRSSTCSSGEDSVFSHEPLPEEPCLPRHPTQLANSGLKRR
Chain of EGF tyrosine kinase receptor (P00533 25-1210): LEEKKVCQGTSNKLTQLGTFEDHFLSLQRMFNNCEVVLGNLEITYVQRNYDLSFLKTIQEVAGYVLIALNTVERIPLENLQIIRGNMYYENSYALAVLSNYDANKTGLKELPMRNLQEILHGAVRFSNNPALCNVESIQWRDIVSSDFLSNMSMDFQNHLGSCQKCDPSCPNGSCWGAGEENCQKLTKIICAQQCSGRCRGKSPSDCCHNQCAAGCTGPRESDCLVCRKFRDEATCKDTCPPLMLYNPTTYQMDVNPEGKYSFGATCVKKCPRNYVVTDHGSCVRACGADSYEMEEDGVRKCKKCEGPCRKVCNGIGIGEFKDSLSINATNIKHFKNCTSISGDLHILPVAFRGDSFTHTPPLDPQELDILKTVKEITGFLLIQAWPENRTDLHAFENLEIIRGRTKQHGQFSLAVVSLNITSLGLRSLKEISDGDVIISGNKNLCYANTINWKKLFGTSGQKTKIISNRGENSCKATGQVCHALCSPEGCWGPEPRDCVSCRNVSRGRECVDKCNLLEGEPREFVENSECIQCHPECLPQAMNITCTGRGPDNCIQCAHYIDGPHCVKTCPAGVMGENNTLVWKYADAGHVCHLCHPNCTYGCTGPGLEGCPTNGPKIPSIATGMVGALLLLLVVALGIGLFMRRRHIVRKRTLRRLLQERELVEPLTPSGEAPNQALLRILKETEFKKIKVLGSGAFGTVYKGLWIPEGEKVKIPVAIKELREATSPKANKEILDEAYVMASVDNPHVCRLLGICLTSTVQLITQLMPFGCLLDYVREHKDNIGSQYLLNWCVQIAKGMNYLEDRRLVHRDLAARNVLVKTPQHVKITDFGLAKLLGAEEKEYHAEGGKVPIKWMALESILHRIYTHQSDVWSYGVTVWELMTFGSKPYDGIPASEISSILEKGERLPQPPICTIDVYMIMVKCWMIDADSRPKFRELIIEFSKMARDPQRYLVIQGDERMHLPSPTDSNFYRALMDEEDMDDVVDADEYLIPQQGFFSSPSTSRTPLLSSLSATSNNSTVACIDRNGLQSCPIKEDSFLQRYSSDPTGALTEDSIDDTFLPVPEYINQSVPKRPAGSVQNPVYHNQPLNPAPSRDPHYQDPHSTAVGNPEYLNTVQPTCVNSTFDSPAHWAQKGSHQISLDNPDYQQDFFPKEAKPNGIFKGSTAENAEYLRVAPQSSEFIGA
T3 sequence (P17948 27-758 limits assumed): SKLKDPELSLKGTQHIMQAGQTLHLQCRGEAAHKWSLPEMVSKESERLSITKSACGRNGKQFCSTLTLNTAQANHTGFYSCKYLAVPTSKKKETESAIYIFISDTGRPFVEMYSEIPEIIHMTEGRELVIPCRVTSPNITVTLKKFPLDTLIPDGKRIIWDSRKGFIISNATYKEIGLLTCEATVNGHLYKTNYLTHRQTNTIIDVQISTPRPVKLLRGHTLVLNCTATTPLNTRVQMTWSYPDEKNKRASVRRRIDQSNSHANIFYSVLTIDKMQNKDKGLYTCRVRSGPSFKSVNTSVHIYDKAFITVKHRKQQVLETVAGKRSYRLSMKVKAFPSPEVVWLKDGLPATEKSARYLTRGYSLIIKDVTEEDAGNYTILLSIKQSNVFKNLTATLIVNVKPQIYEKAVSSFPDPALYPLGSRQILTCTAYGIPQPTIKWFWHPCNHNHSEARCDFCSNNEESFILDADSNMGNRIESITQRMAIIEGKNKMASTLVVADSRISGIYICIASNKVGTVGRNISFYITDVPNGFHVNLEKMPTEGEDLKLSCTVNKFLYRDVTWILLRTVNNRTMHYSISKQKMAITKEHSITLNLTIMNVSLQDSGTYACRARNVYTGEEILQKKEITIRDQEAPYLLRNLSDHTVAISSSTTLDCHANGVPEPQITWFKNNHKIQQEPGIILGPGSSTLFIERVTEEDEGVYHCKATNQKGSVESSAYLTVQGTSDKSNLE
Description for soluble FGFR-1 (FRAP): First we utilized a cell-free system, measuring the binding of radiolabeled bFGF to a dimeric soluble FGFR-1 fused to alkaline phosphatase. […] As a: second experimental model, we used CHO cells deficient in heparan sulfate and genetically engineered to express FGFR-1 (Methods, section (iv)).

`C[n+]1ccc(-c2c3nc(c(-c4cc[n+](C)cc4)c4ccc([nH]4)c(-c4cc[n+](C)cc4)c4nc(c(-c5cc[n+](C)cc5)c5ccc2[nH]5)C=C4)C=C3)cc1` [Compound P1, 5,10,15,20-Tetrakis(N-methyl-4-pyridylium)-21H,23H-porphine tetra-p-tosylate]: the “Inhibition of lung metastasis in LLC model, in words” value in test [1] (25 μg/g of body mass IP) is “no metastatic phenotype; also recorded: nearly total inhibition of the metastatic phenotype”. In test [1], the “Inhibitory activity in vivo, LLC tumor model (as % of total inhibition)” value worked out at 100%. Moreover, the Lung weight result in test [1] (P1 25 μg/g of body mass, FIG. 7) is “around 200 mg”. In addition, the IC50 (commonly the point on the concentration scale where inhibition reaches its midpoint) was 1500 nM at FGFR-1 [2] (Cellular receptor binding (IC50), binding of FGF to FGFR, Methods section (iv)); around 2500 nM on FGFR-1 [2] (IC50, bFGF binding in the cellular receptor system, FIG. 1C); around 1000 nM on soluble FGFR-1 (FRAP) (IC50, bFGF-FGFR1 binding in the soluble receptor (FRAP) assay, FIG. 1B); 750 nM on soluble FGFR-1 (FRAP) (Soluble receptor binding (IC50), binding of FGF to FGFR, Methods section (iii)); around 40 nM in test [7]. The “Inhibition of bFGF-receptor complex formation (cross-linking), in words” value on FGFR-1 [3] was “inhibition of formation of a typical bFGF-receptor complex”. Besides, the “Inhibition of EGF binding to its receptor” value in test [4] is given as “does not inhibit”. The “Effect on cell proliferation induced by FGF-9” value in test [5] is reported as “strong inhibitory effect”. Besides, in test [6], the “Inhibition of primary tumor growth in LLC model, in words” value is “marked inhibition in primary tumor growth”.

On to `C[n+]1ccc(-c2c3nc(c(-c4cc[n+](C)cc4)c4ccc([nH]4)c(-c4c(F)c(F)c(F)c(F)c4F)c4nc(c(-c5cc[n+](C)cc5)c5ccc2[nH]5)C=C4)C=C3)cc1.[I-].[I-].[I-]` [Compound P16, 5-Pentafluorophenyl-10,15,20-tris(N-methyl-4-pyridylium)-21H,23H-porphine triiodide], for which, in test [1], the “Inhibitory activity in vivo, LLC tumor model (as % of total inhibition)” value turned out to be 60%. Further, the half-inhibitory concentration (IC50) stood at 20 nM on FGFR-1 [2] (read-out: Cellular receptor binding (IC50), binding of FGF to FGFR, Methods section (iv)) and 10 nM on soluble FGFR-1 (FRAP) (read-out: Soluble receptor binding (IC50), binding of FGF to FGFR, Methods section (iii)). Also, the “Effect on cell proliferation induced by FGF-9” value in test [5] is on record as “strong inhibitory effect”.
